Results from patent publication US6541463B1, “Inhibitors of type 5 and type 3 17β-hydroxysteroid dehydrogenase and methods for their use” (Endorecherche, Inc., priority 1998, dated 2003).
Values joined by “and” are separate entries in the source; they are usually repeats but may differ in a detail not shown here. Equal values may be shown once.

molecular target: T1, human type 5 17β-hydroxysteroid dehydrogenase (Homo sapiens, UniProt P42330); assay: Inhibition of human type 5 17β-HSD activity in transfected 293 cells; assay type: cell-based; design: Inhibition Type V 17B-HSD % Inh. At 3 · 10^−7 (second value in parentheses): concentration or dose not given beside the values; settings: not given
T1 construct: screen again a human placental λgt11 cDNA to get the full length cDNA clone; expressed in transfected cells; host or cells: human embryonal kidney 293 cells (pCMV / pCMV-neo vector)
T1 sequence (P42330 1-323): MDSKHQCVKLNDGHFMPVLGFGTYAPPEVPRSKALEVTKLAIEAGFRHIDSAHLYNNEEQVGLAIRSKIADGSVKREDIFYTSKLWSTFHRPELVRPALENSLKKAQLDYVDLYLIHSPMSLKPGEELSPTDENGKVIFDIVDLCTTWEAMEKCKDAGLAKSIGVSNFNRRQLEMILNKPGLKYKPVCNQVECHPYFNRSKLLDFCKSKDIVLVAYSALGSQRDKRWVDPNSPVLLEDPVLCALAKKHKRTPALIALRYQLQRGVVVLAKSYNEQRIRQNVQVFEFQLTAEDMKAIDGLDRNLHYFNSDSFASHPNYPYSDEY
Procedure, shortened: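 Human type 5 17β-HSD cDNA in a CMV-promoter vector, transfected by calcium phosphate (1 to 10 μg plasmid per 10^6 cells) into 293 cells grown in DMEM with 10% FBS at 37 °C.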

Q: For `CC(=O)O[C@]1(C(C)=O)CCC2C3C=C(C)C4=CC(=O)CC[C@]4(C)C3CC[C@@]21C` (stereo partly shown) [megestrol acetate, reference compound], which “inhibition of type 5 17β-hydroxysteroid dehydrogenase (in words)” value is on record?
A: inhibit that type 5 enzyme

same assay, conditions: Table 4′; 3 · 10^−6

Q: Which “Inhibition Type V 17β-HSD % Inh. at 3 · 10^−6” value does the source give for `CC1(C)CCC2(CCC3C4CCc5cc(C(=O)OCc6ccccc6)ccc5C4CCC32C)OC1=O` (stereo not shown) [EM-1398] here?
A: 89%

same assay, conditions: Table 4′; 3 · 10^−7

Q: For `CC1(C)CCC2(CCC3C4CCc5cc(C(=O)OCc6ccccc6)ccc5C4CCC32C)OC1=O` (stereo not shown) [EM-1398], which “Inhibition Type V 17β-HSD % Inh. at 3 · 10^−7” value is on record?
A: 70%

same assay, conditions: Table 4′; read-out: Inhibition Type V 17β-HSD IC50

Q: `CC1(C)CCC2(CCC3C4CCc5cc(OCCN6CCCCC6)ccc5C4CCC32C)OC1=O` [EM-1390-CS, 3-(N-piperidyl-ethyl)-1,3,5(10)-estratrien-17(R)-spiro-2′-(5′,5′-dimethyl-6′-oxo)-tetrahydropyran] was tested. Which IC50 did it give?
A: 0.048 µM

Q: How did the IC50 turn out when `CC1CCC2(CCC3C4CCc5cc(O)c([N+](=O)[O-])cc5C4CCC32C)OC1=O` [EM-1126, 2-Nitro-1,3,5(10)-estratrien-3-ol-17(R)-spiro-2′-(5′-methyl-6′-oxo)tetrahydropyran] was run?
A: 0.006 ± 0.001 µM

Q: For `COc1ccc2c(c1)C(=O)CC1C3CCC4(CCC(C)(C)C(=O)O4)C3(C)CCC21O` (stereo not shown) [EM-1386], which IC50 is on record?
A: 0.025 µM

Q: How did the IC50 turn out when `C=CCC1CCC2(CCC3C4CCc5cc(O)ccc5C4CCC32C)OC1=O` [PB-132-152, 3-Hydroxy-1,3,5(10)-estratrien-17(R)-2′-(5′-allyl-6′-oxo)tetrahydropyran] was run?
A: 0.107 ± 0.009 µM

Q: Which IC50 does the source give for `COCCOc1cc2c(cc1C(N)=O)C1CC[C@@]3(C)C(CC[C@@]34CCC(C)(C)C(=O)O4)C1CC2` (stereo partly drawn) [EM-1424, 2-Carbamoyl-3-(2″-methoxyethyloxy)-1,3,5(10)-estratrien 17(R)-spiro-2′-(5′,5′-dimethyl-6′-oxo)tetrahydropyran] here?
A: 0.0095 µM

Q: For `COCCOc1cc2c(cc1C(=O)N(C)C)C1CCC3(C)C(CCC34CCC(C)(C)C(=O)O4)C1CC2` (stereo not shown) [EM-1413-CS], which IC50 is on record?
A: 0.017 µM

Q: Which IC50 does the source give for `COCCOc1cc2c(cc1C(=O)OC)C1CC[C@@]3(C)C(CC[C@@]34CCC(C)(C)C(=O)O4)C1CC2` (stereo partly drawn) [EM-1402-CS, 2-Carbomethoxy-3-(2″-methoxyethyloxy)-1,3,5(10)-estratrien 17(R)-spiro-2′-(5′,5′-dimethyl-6′-oxo)tetrahydropyran] here?
A: 0.012 µM

Q: How did the IC50 turn out when `COC(=O)C1CCC2(CCC3C4CCc5cc(O)ccc5C4CCC32C)OC1=O` [PB-132-146, 3-Hydroxy-1,3,5(10)-estratrien-17(R)-2′-(5′-methoxycarbonyl-6′-oxo)tetrahydropyran] was run?
A: 0.072 ± 0.003 µM

Q: For `COc1ccc2c(c1)CCC1C2CCC2(C)C1CCC21CCC(C)(C)C(=O)O1` (stereo not shown) [EM-1370], which IC50 is on record?
A: 0.043 µM

Q: How did the IC50 turn out when `CN(C)C(=O)c1cc2c(cc1O)CCC1C2CCC2(C)C1CCC21CCC(C)(C)C(=O)O1` (stereo not shown) [EM-01661-B] was run?
A: 0.0192 ± 0.001 µM

Q: With `COc1ccc2c(c1)C(=O)CC1C2CC[C@@]2(C)C1CC[C@@]21CCC(C)(C)C(=O)O1` (stereo partly shown) [EM-1394] as the molecule, how does the IC50 read?
A: 0.009 µM

Q: `COCCOc1cc2c(cc1C(=O)O)C1CCC3(C)C(CCC34CCC(C)(C)C(=O)O4)C1CC2` [EM-1405, 2-Carboxy-3-(2″-methoxyethyloxy)-1,3,5(10)-estratrien-17(R)-spiro-2′-(5′,5′-dimethyl-6′-oxo)tetrahydropyran] was tested. Which IC50 did it give?
A: 0.023 µM

Q: How did the IC50 turn out when `CC1(C)CCC2(CCC3C4CCc5cc(O)c(C(N)=O)cc5C4CCC32C)OC1=O` (stereo not shown) [EM-01660] was run?
A: 0.0056 ± 0.0004 µM

Q: For `CC12CCC3c4ccc(F)cc4CCC3C1CCC21CCCC(=O)O1` (stereo not shown) [EM-1170-CS], which IC50 is on record?
A: 0.007 ± 0.001 µM

Q: Which IC50 does the source give for `CCS(=O)(=O)Oc1ccc2c(c1)CCC1C2CCC2(C)C1CCC21CCC(C)(C)C(=O)O1` (stereo not shown) [EM-1364-CS] here?
A: 0.017 µM

Q: `CSCCOc1ccc2c(c1)CCC1C2CCC2(C)C1CCC21CCCC(=O)O1` [CS-242, 3-Methylthioethyloxy-1,3,5(10)-estratrien-17(R)-spiro-2′-(6′-oxo) Tetrahydropyran] was tested. Which IC50 did it give?
A: 0.0066 ± 0.0009 µM

Q: How did the IC50 turn out when `CN(C)CCOc1ccc2c(c1)CCC1C2CCC2(C)C1CCC21CCC(C)(C)C(=O)O1` (stereo not shown) [EM-1389-CS] was run?
A: 0.025 µM

Q: How did the IC50 turn out when `CC1(C)CCC2(CCC3C4CCc5c(cc(Cl)c(O)c5Cl)C4CCC32C)OC1=O` (stereo not shown) [EM-1391-CS] was run?
A: 0.019 µM

Q: With `CC1(C)CCC2(CCC3C4CCc5ccccc5C4CCC32C)OC1=O` (stereo not shown) [CS-224] as the molecule, how does the IC50 read?
A: 0.0029 µM and 0.0107 µM

Q: Which IC50 does the source give for `COCCOc1cc2c(cc1F)C1CCC3(C)C(CCC34CCC(C)(C)C(=O)O4)C1CC2` (stereo not shown) [EM-1393-CS] here?
A: 0.016 µM

same assay, conditions: Table 5 column 2; 3.10^−6

Q: `CN1C(=O)C=C[C@]2(C)C3CC[C@@]4(C)C(CC[C@@]45CCCC(=O)O5)C3CCC12` (stereo partly shown) [EM-1122-CS] was tested. Which “Inhibition Type V 17β-HSD % inh. At 3.10^−6” value did it give?
A: 95) %

same assay, conditions: Table 5 column 2; 3.10^−7

Q: Which “Inhibition Type V 17β-HSD % inh. At 3.10^−7” value does the source give for `CN1C(=O)C=C[C@]2(C)C3CC[C@@]4(C)C(CC[C@@]45CCCC(=O)O5)C3CCC12` (stereo partly shown) [EM-1122-CS] here?
A: (80%

same assay, conditions: first of two concentrations, 3 · 10^−7

Q: How did the “Inhibition Type V 17B-HSD % Inh. At 3 · 10^−7 (first value in parentheses)” value turn out when `CC1=C[C@@H]2[C@H](CC[C@]3(C)C(=O)C4(CCCCC4)C[C@@H]23)[C@@]2(C)CCC(=O)C=C12` [EM-925] was run?
A: (46%

same assay, conditions: read-out: Inhibition Type V 17B-HSD IC50

Q: For `CCC[C@@H]1CC2C3C=CC4=CC(=O)CC[C@]4(C)C3CC[C@]2(C)C1=O` (stereo partly shown) [EM-1097], which IC50 is on record?
A: 0.01 µM

Q: `CC(C)C[C@@H]1CC2C3C=CC4=CC(=O)CC[C@]4(C)C3CC[C@]2(C)C1=O` (stereo partly shown) [EM-1273-CS] was tested. Which IC50 did it give?
A: 0.009 µM

Q: For `CCC[C@]1(F)CC2C3C=CC4=CC(=O)CC[C@]4(C)C3CC[C@]2(C)C1=O` (stereo partly shown) [EM-1183], which IC50 is on record?
A: 0.0046 ± 0.0004 µM

same assay, conditions: read-out: Inhibition Type V 17β-HSD IC50

Q: How did the IC50 turn out when `CCCC(=O)OC1(C(C)=O)CCC2C3C=C(C)C4=CC(=O)CC(C)C4(C)C3CCC21C` (stereo not shown) [CS-245] was run?
A: 0.0032 ± 0.0001 µM

Q: For `CC(=O)O[C@]1(C(C)=O)CCC2C3C=C(C)C4=CC(=O)CC[C@]4(C)C3CC[C@@]21C` (stereo partly shown) [megestrol acetate, reference compound], which IC50 is on record?
A: 0.0174 ± 0.0028 µM

Q: Which IC50 does the source give for `CCC(=O)O[C@]1(C(C)=O)CCC2C3C=C(C)C4=CC(=O)C[C@H](C)[C@]4(C)C3CC[C@@]21C` (stereo partly shown) [CS-243] here?
A: 0.0035 ± 0.0001 µM

Q: How did the IC50 turn out when `CC(=O)O[C@]1(C(=O)N(C)C)CCC2C3C=C(C)C4=CC(=O)CC[C@]4(C)C3CC[C@@]21C` (stereo partly shown) [EM-1159] was run?
A: 0.014 ± 0.002 µM

same assay, conditions: second of two concentrations, 3 · 10^−7

Q: `CC1=C[C@@H]2[C@H](CC[C@]3(C)C(=O)C4(CCCCC4)C[C@@H]23)[C@@]2(C)CCC(=O)C=C12` [EM-925] was tested. Which “Inhibition Type V 17B-HSD % Inh. At 3 · 10^−7 (second value in parentheses)” value did it give?
A: 81) %
